Test system: 276233-004-R-J1-PDC KRAS spheroids with HUVEC/MSC, viability
Assay: Anticancer human tumor 276233-004-R-J1-PDC patient-derived colon adenocarcinoma cell line growth inhibition [KRAS2]
Conditions: for viability, T/C: stronger effect = lower value
Outline: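 Combination screen of spheroid viability in tumor-cell co-cultures with endothelial (HUVEC) and mesenchymal stem cell stroma. Each agent was tested in half-log dilutions, topping at clinical Cmax or at 10 microM without a known Cmax.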

[1] = curve of first compound, second compound 0.1 µM
[2] = curve of first compound, second compound 0.316 µM
[3] = curve of first compound, second compound 1 µM
[4] = curve of first compound, second compound 3.16 µM
[5] = second compound 0.1 µM, first compound 0.0316 µM
[6] = second compound 0.1 µM, first compound 0.1 µM
[7] = second compound 0.1 µM, first compound 0.316 µM
[8] = second compound 0.1 µM, first compound 1 µM
[9] = second compound 0.1 µM, first compound 3.16 µM
[10] = second compound 0.316 µM, first compound 0.0316 µM
[11] = second compound 0.316 µM, first compound 0.1 µM
[12] = second compound 0.316 µM, first compound 0.316 µM
[13] = second compound 0.316 µM, first compound 1 µM
[14] = second compound 0.316 µM, first compound 3.16 µM
[15] = second compound 1 µM, first compound 0.0316 µM
[16] = second compound 1 µM, first compound 0.1 µM
[17] = second compound 1 µM, first compound 0.316 µM
[18] = second compound 1 µM, first compound 1 µM
[19] = second compound 1 µM, first compound 3.16 µM
[20] = second compound 3.16 µM, first compound 0.0316 µM
[21] = second compound 3.16 µM, first compound 0.1 µM
[22] = second compound 3.16 µM, first compound 0.316 µM
[23] = second compound 3.16 µM, first compound 1 µM
[24] = second compound 3.16 µM, first compound 3.16 µM
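Note: cells exposed to agents for seven days before viability read.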
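Throughout, for viability, T/C: 100% = DMSO vehicle control wells and lower values mean fewer viable cells.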

| SMILES | IC50 [1] [µM] | IC50 [2] [µM] | IC50 [3] [µM] | IC50 [4] [µM] | viability, T/C [5] [%] | viability, T/C [6] [%] | viability, T/C [7] [%] | viability, T/C [8] [%] | viability, T/C [9] [%] | viability, T/C [10] [%] | viability, T/C [11] [%] | viability, T/C [12] [%] | viability, T/C [13] [%] | viability, T/C [14] [%] | viability, T/C [15] [%] | viability, T/C [16] [%] | viability, T/C [17] [%] | viability, T/C [18] [%] | viability, T/C [19] [%] | viability, T/C [20] [%] | also measured |
| --- | --- | --- | --- | --- | --- | --- | --- | --- | --- | --- | --- | --- | --- | --- | --- | --- | --- | --- | --- | --- | --- |
| CC(=O)OC12COC1CC(O)C1(C)C(=O)C(O)C3=C(C)C(OC(=O)C(O)C(NC(=O)OC(C)(C)C)c4ccccc4)CC(O)(C(OC(=O)c4ccccc4)C21)C3(C)C (centres undefined) + COc1cc2nc(C)nc(NC(C)c3cc(N)cc(C(F)(F)F)c3)c2cc1OC1CCOC1 | > 3.16 | > 3.16 | > 3.16 | > 3.16 | 75.9 | 83.1 | 91.8 | 86.1 | 94 | 80.7 | 72 | 65.4 | 78.3 | 71.7 | 73.3 | 82 | 76.4 | 92.2 | 78.5 | 70.5 | IC50 (curve of first compound, second compound 10 µM): > 3.16 µM; viability, T/C (second compound 0.1 µM, first compound 0.01 µM): 86.8%; viability, T/C (second compound 0.316 µM, first compound 0.01 µM): 75.1%; viability, T/C (second compound 1 µM, first compound 0.01 µM): 73.4%; viability, T/C (second compound 3.16 µM, first compound 0.01 µM): 78.3%; viability, T/C [21]: 58.9%; viability, T/C [22]: 61.2%; viability, T/C [23]: 69.3%; viability, T/C [24]: 66.3%; viability, T/C (second compound 10 µM, first compound 0.01 µM): 64.3%; viability, T/C (second compound 10 µM, first compound 0.0316 µM): 61.2%; viability, T/C (second compound 10 µM, first compound 0.1 µM): 73.3%; viability, T/C (second compound 10 µM, first compound 0.316 µM): 72.7%; viability, T/C (second compound 10 µM, first compound 1 µM): 78.8%; viability, T/C (second compound 10 µM, first compound 3.16 µM): 77.8% |
| COC(=O)c1ccc2c(C(=Nc3ccc(N(C)C(=O)CN4CCN(C)CC4)cc3)c3ccccc3)c(O)[nH]c2c1 + C=CC(=O)N1CCN(c2nc(OCC3CCCN3C)nc3c2CCN(c2cccc4cccc(C)c24)C3)CC1CC#N | > 10 | > 10 | > 10 | < 0.0316 | 77.4 | 65.8 | 59.2 | 71.7 | 89.7 | 83.6 | 87.5 | 76.2 | 77.1 | 78.6 | 88 | 78.8 | 69.8 | 62.1 | 69.1 | 39.6 | IC50 (curve of first compound, second compound 0.0316 µM): > 10 µM; viability, T/C (second compound 0.0316 µM, first compound 0.0316 µM): 86.4%; viability, T/C (second compound 0.0316 µM, first compound 0.1 µM): 95.1%; viability, T/C (second compound 0.0316 µM, first compound 0.316 µM): 77.5%; viability, T/C (second compound 0.0316 µM, first compound 1 µM): 83.6%; viability, T/C (second compound 0.0316 µM, first compound 3.16 µM): 81.8%; viability, T/C (second compound 0.0316 µM, first compound 10 µM): 93.2%; viability, T/C (second compound 0.1 µM, first compound 10 µM): 64%; viability, T/C (second compound 0.316 µM, first compound 10 µM): 70%; viability, T/C (second compound 1 µM, first compound 10 µM): 65.7%; viability, T/C [21]: 46.6%; viability, T/C [22]: 34.4%; viability, T/C [23]: 26.9%; viability, T/C [24]: 18.7%; viability, T/C (second compound 3.16 µM, first compound 10 µM): 3.45% |
| O=C(c1cc(Cc2n[nH]c(=O)c3ccccc23)ccc1F)N1CCN(C(=O)C2CC2)CC1 | – | – | – | – | – | – | – | – | – | – | – | – | – | – | – | – | – | – | – | – | viability, T/C (compound 0.1 µM): 91.9% [middle of 5 runs]; viability, T/C (compound 0.316 µM): 84.4% [middle of 5 runs]; viability, T/C (compound 1 µM): 89.5% [middle of 5 runs]; IC50 (curve of compound): > 10 µM |
